Like-named read-outs stand apart in the source and are kept apart here.
Tests used:
[1] = Solubility testing in buffer (HPLC-UV); assay type: physicochemical
Procedure: Prior to the testing of solubility and stability of a peptide batch, its purity (HPLC-UV) was determined.
. Therefore, solutions from solid samples were prepared in different buffer systems with a concentration of 10 mg/mL compound based on the previously determined % purity. HPLC-UV was performed after 2 h of gentle agitation from the supernatant, which was obtained by 20 min of centrifugation at 4500 rpm.
[…]. This analysis also served as starting point (t0) for the stability testing.

[2] = biological target: T1, human GIP receptor (hGIP-R) (Homo sapiens, UniProt P48546); assay: cAMP response of HEK-293 cells expressing human GIP receptor (HTRF); assay type: cell-based
T1 construct: expressed in transfected cells
T1 sequence (P48546 22-466): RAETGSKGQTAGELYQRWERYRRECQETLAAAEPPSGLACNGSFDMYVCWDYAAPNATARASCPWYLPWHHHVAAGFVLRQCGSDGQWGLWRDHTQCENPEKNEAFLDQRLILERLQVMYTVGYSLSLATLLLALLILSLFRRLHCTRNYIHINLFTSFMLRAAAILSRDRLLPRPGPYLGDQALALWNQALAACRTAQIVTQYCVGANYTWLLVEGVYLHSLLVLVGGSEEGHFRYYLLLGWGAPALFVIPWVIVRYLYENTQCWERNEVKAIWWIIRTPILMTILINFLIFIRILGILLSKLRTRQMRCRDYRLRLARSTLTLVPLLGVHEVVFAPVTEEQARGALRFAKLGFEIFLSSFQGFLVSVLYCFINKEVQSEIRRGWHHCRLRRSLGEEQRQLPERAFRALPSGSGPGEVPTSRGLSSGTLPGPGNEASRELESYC
Procedure: (§1) cAMP content of cells was determined using a kit from Cisbio Corp. (cat. no. 62AM4PEC) based on HTRF (Homogenous Time Resolved Fluorescence). For preparation, cells were split into T175 culture flasks and grown overnight to near confluency in medium (DMEM/10% FBS). Medium was then removed and cells washed with PBS lacking calcium and magnesium, followed by proteinase treatment with accutase (Sigma-Aldrich cat. no. A6964). Detached cells were washed and resuspended in assay buffer (1×HBSS; 20 mM HEPES, 0.1% BSA, 2 mM IBMX) and cellular density determined. They were then diluted to 400000 cells/ml and 25 μl-aliquots dispensed into the wells of 96-well plates. For measurement, 25 μl of test compound in assay buffer was added to the wells, followed by incubation for 30 minutes at room temperature.

[3] = biological target: T2, human glucagon receptor (hGlucagon R) (Homo sapiens, UniProt P47871); assay: cAMP response of HEK-293 cells expressing human glucagon receptor (HTRF); assay type: cell-based
T2 construct: expressed in transfected cells
Procedure: as §1

[4] = biological target: T3, human GLP-1 receptor (hGLP-1 R) (Homo sapiens, UniProt P43220); assay: cAMP response of HEK-293 cells expressing human GLP-1 receptor (HTRF); assay type: cell-based; settings: Table 6
T3 construct: expressed in transfected cells
Procedure: as §1

[5] = Acute effect on blood glucose in fed female DIO C57BL/6 mice; assay type: in vivo; settings: 50 μg/kg s.c. once daily; t=1, 2, 3, 4, 6 and 24 h post dosing; p<0.001
Procedure: (§2) C57BL/6 Harlan mice are housed in groups in a specific pathogen-free barrier facility on a 12 h light/dark cycle with free access to water and standard or high-fat diet. After prefeeding on high-fat diet, mice are stratified to treatment groups (n=8), so that each group has similar mean body weight. An age-matched group with ad-libitum access to standard chow is included as standard control group. Before the experiment, mice are subcutaneously (s.c.) injected with vehicle solution and weighed for 3 days to acclimate them to the procedures.
1) Acute effect on blood glucose in fed female DIO mice: initial blood samples are taken just before first administration (s.c.) of vehicle (phosphate buffer solution) or the exendin-4 derivatives (dissolved in phosphate buffer), respectively. The volume of administration is 5 mL/kg. The animals have access to water and their corresponding diet during the experiment. Blood glucose levels are measured at t=0 h, t=1 h, t=2 h, t=3 h, t=4 h, t=6 h and t=24 h (method: Accu-Check glucometer). Blood sampling is performed by tail incision without anaesthesia.
(§3) Statistical analyses are performed with Everstat 6.0 by repeated measures two-way ANOVA and Dunnetts post-hoc analyses (glucose profile) and 1-way-ANOVA, followed by Dunnetts post-hoc test (body weight, body fat). Differences versus vehicle-treated DIO control mice are considered statistically significant at the p<0.05 level.
At predefined time points, more blood samples were taken to measure blood glucose and generate the blood glucose profile over 24 h.

[6] = Chronic effect on body weight and body fat in female DIO C57BL/6 mice, 4 weeks; assay type: in vivo; settings: 50 μg/kg qd s.c.
Procedure: as §2
2) Chronic effect on body weight in female DIO mice: mice are treated once (s.c. in evening hours) or twice daily (s.c. in the morning and in the evening), respectively, at the beginning and the end of the light phase with either vehicle or exendin-4 derivatives for 4 weeks. Body weight is recorded daily. Two days before start of treatment and on day 26, total fat mass is measured by nuclear magnetic resonance (NMR).
as §3
Body weight was recorded daily, and body fat content was determined before the start and after 4 weeks of treatment. […] These changes resulted from a decrease in body fat, as shown by the absolute changes in body fat content (Table 10, FIG. 3).
Body weight was recorded daily, and body fat content was determined before the start and after 4 weeks of treatment.

[7] = pH 4.5, target concentration 10 mg/ml, read-out: solubility [mg/ml] pH 4.5
[8] = pH 7.4, target concentration 10 mg/ml, read-out: solubility [mg/ml] pH 7.4

T2 sequence (P47871 26-477): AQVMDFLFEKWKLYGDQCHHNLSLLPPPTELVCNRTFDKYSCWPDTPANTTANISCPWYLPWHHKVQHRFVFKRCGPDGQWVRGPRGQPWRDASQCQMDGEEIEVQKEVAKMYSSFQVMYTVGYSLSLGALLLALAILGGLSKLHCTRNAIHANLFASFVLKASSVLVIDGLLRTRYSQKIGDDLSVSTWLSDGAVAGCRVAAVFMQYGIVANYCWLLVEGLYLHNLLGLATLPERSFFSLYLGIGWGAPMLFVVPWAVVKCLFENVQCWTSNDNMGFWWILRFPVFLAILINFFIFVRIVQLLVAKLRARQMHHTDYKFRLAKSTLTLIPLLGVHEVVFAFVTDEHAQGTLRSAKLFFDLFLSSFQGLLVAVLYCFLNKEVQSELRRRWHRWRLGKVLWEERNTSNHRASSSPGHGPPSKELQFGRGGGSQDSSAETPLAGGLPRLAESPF
T3 sequence (P43220 24-463): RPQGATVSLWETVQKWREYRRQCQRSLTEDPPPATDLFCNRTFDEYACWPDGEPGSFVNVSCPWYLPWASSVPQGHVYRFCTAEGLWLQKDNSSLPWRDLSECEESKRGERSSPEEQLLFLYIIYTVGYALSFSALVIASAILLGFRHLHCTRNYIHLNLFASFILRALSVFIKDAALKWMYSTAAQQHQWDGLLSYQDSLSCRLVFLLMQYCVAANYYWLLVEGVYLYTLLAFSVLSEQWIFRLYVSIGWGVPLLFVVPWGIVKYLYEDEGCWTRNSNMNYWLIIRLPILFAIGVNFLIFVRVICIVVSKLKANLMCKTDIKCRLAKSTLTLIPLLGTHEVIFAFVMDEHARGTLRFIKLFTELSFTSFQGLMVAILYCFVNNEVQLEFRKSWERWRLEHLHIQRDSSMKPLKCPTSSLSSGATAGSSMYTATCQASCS

Row | SMILES | solubility at 2 h [1, 7] [mg/mL] | solubility at 2 h [1, 8] [mg/mL] | EC50 ([2]; Table 6, read-out: EC50 hGIP-R) [pM] | EC50 ([3]; Table 6) [pM] | EC50 [4] [pM] | Blood glucose compared to DIO control mice [5] | EC50 ([2]; Table 7, comparison of residue in position 14, read-out: EC50 hGIP-1) [pM] | Day on which significant body weight decrease begins ([6]; 4 weeks, continuing through the end of the study) [days] | Daily body weight compared to vehicle DIO control mice ([6]; 4 weeks, p>0.001 by the end of the study (so in the source)) | Body fat change ([6]; DIO mice, 4-week treatment, NMR, mean ± SEM) [g] | Overall weight change ([6]; DIO mice, 4-week treatment, mean ± SEM) [g] | EC50 ([3]; Table 7, comparison of residue in position 14) [pM]
1 | CCCCCCCCCCCCCCCC(=O)N[C@@H](CCC(=O)N[C@@H](CCC(=O)NCCCC[C@H](NC(=O)[C@H](CCC(N)=O)NC(=O)[C@H](CCCCN)NC(=O)[C@H](CO)NC(=O)[C@H](CC(C)C)NC(=O)[C@H](CC(=O)O)NC(=O)[C@H](CO)NC(=O)[C@@H](NC(=O)[C@H](Cc1ccccc1)NC(=O)[C@@H](NC(=O)CNC(=O)[C@H](CCC(N)=O)NC(=O)C(C)(C)NC(=O)[C@@H](N)Cc1c[nH]cn1)[C@@H](C)O)[C@@H](C)O)C(=O)N[C@@H](CC(=O)O)C(=O)N[C@@H](CCC(=O)O)C(=O)N[C@@H](CCC(N)=O)C(=O)N[C@@H](CCCNC(=N)N)C(=O)N[C@@H](C)C(=O)N[C@@H](CCCCN)C(=O)N[C@@H](CC(C)C)C(=O)N[C@@H](Cc1ccccc1)C(=O)N[C@H](C(=O)N[C@@H](CCC(=O)O)C(=O)N[C@@H](Cc1c[nH]c2ccccc12)C(=O)N[C@@H](CC(C)C)C(=O)NC(C)(C)C(=O)N[C@@H](CCCCN)C(=O)N[C@H](C)C(=O)NCC(=O)N1CCC[C@H]1C(=O)N[C@@H](CO)C(=O)N[C@@H](CO)C(=O)NCC(=O)N[C@@H](C)C(=O)N1CCC[C@H]1C(=O)N1CCC[C@H]1C(=O)N1CCC[C@H]1C(=O)N[C@@H](CO)C(N)=O)[C@@H](C)CC)C(=O)O)C(=O)O [SEQ ID NO: 14, H-Aib-Q-G-T-F-T-S-D-L-S-K-Q-K(γE-γE-x53)-D-E-Q-R-A-K-L-F-I-E-W-L-Aib-K-dAla-G-P-S-S-G-A-P-P-P-S-NH2] | > 8 | > 8 | – | – | – | – | – | – | – | – | – | –
2 | CCCCCCCCCCCCCCCCCC(=O)N[C@@H](CCC(=O)NCCCC[C@H](NC(=O)[C@H](CCC(N)=O)NC(=O)[C@H](CCCCN)NC(=O)[C@H](CO)NC(=O)[C@H](CC(C)C)NC(=O)[C@H](CC(=O)O)NC(=O)[C@H](CO)NC(=O)[C@@H](NC(=O)[C@H](Cc1ccccc1)NC(=O)[C@@H](NC(=O)CNC(=O)[C@H](CCC(N)=O)NC(=O)C(C)(C)NC(=O)[C@@H](N)Cc1c[nH]cn1)[C@@H](C)O)[C@@H](C)O)C(=O)N[C@@H](CC(=O)O)C(=O)N[C@@H](CCC(=O)O)C(=O)N[C@@H](CCC(N)=O)C(=O)N[C@@H](CCCNC(=N)N)C(=O)N[C@@H](C)C(=O)N[C@@H](CCCCN)C(=O)N[C@@H](CC(C)C)C(=O)N[C@@H](Cc1ccccc1)C(=O)N[C@H](C(=O)N[C@@H](CCC(=O)O)C(=O)N[C@@H](Cc1c[nH]c2ccccc12)C(=O)N[C@@H](CC(C)C)C(=O)NC(C)(C)C(=O)N[C@@H](C)C(=O)NCC(=O)NCC(=O)N1CCC[C@H]1C(=O)N[C@@H](CO)C(=O)N[C@@H](CO)C(=O)NCC(=O)N[C@@H](C)C(=O)N1CCC[C@H]1C(=O)N1CCC[C@H]1C(=O)N1CCC[C@H]1C(=O)N[C@@H](CO)C(N)=O)[C@@H](C)CC)C(=O)O [SEQ ID NO: 9, H-Aib-Q-G-T-F-T-S-D-L-S-K-Q-K(γE-x70)-D-E-Q-R-A-K-L-F-I-E-W-L-Aib-A-G-G-P-S-S-G-A-P-P-P-S-NH2] | – | – | 1160 | 15.4 | 6.4 | – | – | – | – | – | – | –
3 | CCCCCCCCCCCCCCCC(=O)N[C@@H](CCC(=O)NCCCC[C@H](NC(=O)[C@H](CCC(N)=O)NC(=O)[C@H](CCCCN)NC(=O)[C@H](CO)NC(=O)[C@H](CC(C)C)NC(=O)[C@H](CC(=O)O)NC(=O)[C@H](CO)NC(=O)[C@@H](NC(=O)[C@H](Cc1ccccc1)NC(=O)[C@@H](NC(=O)CNC(=O)[C@H](CCC(N)=O)NC(=O)C(C)(C)NC(=O)[C@@H](N)Cc1c[nH]cn1)[C@@H](C)O)[C@@H](C)O)C(=O)N[C@@H](CC(=O)O)C(=O)N[C@@H](CCC(=O)O)C(=O)N[C@@H](CCC(N)=O)C(=O)N[C@@H](CCCNC(=N)N)C(=O)N[C@@H](C)C(=O)N[C@@H](CCCCN)C(=O)N[C@@H](CC(C)C)C(=O)N[C@@H](Cc1ccccc1)C(=O)N[C@H](C(=O)N[C@@H](CCC(=O)O)C(=O)N[C@@H](Cc1c[nH]c2ccccc12)C(=O)N[C@@H](CC(C)C)C(=O)NC(C)(C)C(=O)N[C@@H](C)C(=O)NCC(=O)NCC(=O)N1CCC[C@H]1C(=O)N[C@@H](CO)C(=O)N[C@@H](CO)C(=O)NCC(=O)N[C@@H](C)C(=O)N1CCC[C@H]1C(=O)N1CCC[C@H]1C(=O)N1CCC[C@H]1C(=O)N[C@@H](CO)C(N)=O)[C@@H](C)CC)C(=O)O [SEQ ID NO: 10, H-Aib-Q-G-T-F-T-S-D-L-S-K-Q-K(γE-x53)-D-E-Q-R-A-K-L-F-I-E-W-L-Aib-A-G-G-P-S-S-G-A-P-P-P-S-NH2] | – | – | 890 | 52.4 | 3.5 | – | – | – | – | – | – | –
4 | CCCCCCCCCCCCCCCC(=O)N[C@@H](CCC(=O)N[C@@H](CCC(=O)NCCCC[C@H](NC(=O)[C@H](CCC(N)=O)NC(=O)[C@H](CCCCN)NC(=O)[C@H](CO)NC(=O)[C@H](CC(C)C)NC(=O)[C@H](CC(=O)O)NC(=O)[C@H](CO)NC(=O)[C@@H](NC(=O)[C@H](Cc1ccccc1)NC(=O)[C@@H](NC(=O)CNC(=O)[C@H](CCC(N)=O)NC(=O)C(C)(C)NC(=O)[C@@H](N)Cc1c[nH]cn1)[C@@H](C)O)[C@@H](C)O)C(=O)N[C@@H](CC(=O)O)C(=O)N[C@@H](CCC(=O)O)C(=O)N[C@@H](CCC(N)=O)C(=O)N[C@@H](CCCNC(=N)N)C(=O)N[C@@H](C)C(=O)N[C@@H](CCCCN)C(=O)N[C@@H](CC(C)C)C(=O)N[C@@H](Cc1ccccc1)C(=O)N[C@H](C(=O)N[C@@H](CCC(=O)O)C(=O)N[C@@H](Cc1c[nH]c2ccccc12)C(=O)N[C@@H](CC(C)C)C(=O)NC(C)(C)C(=O)N[C@@H](CCCCN)C(=O)NCC(=O)NCC(=O)N1CCC[C@H]1C(=O)N[C@@H](CO)C(=O)N[C@@H](CO)C(=O)NCC(=O)N[C@@H](C)C(=O)N1CCC[C@H]1C(=O)N1CCC[C@H]1C(=O)N1CCC[C@H]1C(=O)N[C@@H](CO)C(N)=O)[C@@H](C)CC)C(=O)O)C(=O)O [SEQ ID NO: 15, H-Aib-Q-G-T-F-T-S-D-L-S-K-Q-K(γE-γE-x53)-D-E-Q-R-A-K-L-F-I-E-W-L-Aib-K-G-G-P-S-S-G-A-P-P-P-S-NH2] | > 8 | > 8 | – | – | – | significant decrease in blood glucose | 11900 | 4 | statistically significant decrease | -4.01 ± 0.68 | -4.59 ± 1.1 | 394
